Test results as given in patent publication US9102648B1, “Bioavailable diacylhydrazine ligands for modulating the expression of exogenous genes via an ecdysone receptor complex” (Intrexon Corporation, priority 2003, dated 2015).
Where two headings read alike, the source gives them in different places.

How the values were obtained:
[1] = biological target: GAL4 DBD-CfEcR(DEF)/VP16AD-MmRXRE (Choristoneura fumiferana, UniProt O77240); assay: 13B3 Assay (CHO stable cell line, luciferase reporter); conditions: for 13B3 assay Rel Max FI: maximum fold induction at any concentration relative to that of GS-E ligand, CHO 13B3 cells; for fold induction at 3.3 µM: read-out: Fold Induction, 13B3 Assay, 3.3 uM; for fold induction at 33 µM: read-out: Fold Induction, 13B3 Assay, 33 uM; for Fold Induction, 13B3 Assay, 33 uM: 33 uM ligand; for Fold Induction, 13B3 Assay, 33 uM / Fold Induction, 13B3 Assay, 3.3 uM: RLU ligand treated / RLU DMSO treated cells; for Fold Induction, 13B3 Assay, 3.3 uM: 3.3 uM ligand
Summary of the method: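 CHO 13B3 clone stably expressing GAL4 DBD–CfEcR(DEF) and VP16AD–MmRXR(DE) with GAL4 RE–luciferase reporter; cells plated 24 h at 37 °C, then treated with ligands (DMSO stocks diluted 300-fold), 8 concentrations 33–0.01 μM.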

[2] = biological target: T1, Bombyx mori EcR (VP16 fusion, CVBE switch construct) (Bombyx mori, UniProt P49881); assay: Z3 Assay (HEK-293 cells with CVBE and 6XEcRE LacZ, β-galactosidase reporter); conditions: for fold induction at 3.3 µM: HEK293, read-out: Fold Induction, Z3 Assay, 3.3 uM; for fold induction at 33 µM: HEK293, read-out: Fold Induction, Z3 Assay, 33 uM; for Z3 assay Rel Max FI: maximum fold induction at any concentration relative to that of GS-E ligand; for Fold Induction, Z3 Assay, 3.3 uM: 3.3 uM ligand; for Fold Induction, Z3 Assay, 3.3 uM / Fold Induction, Z3 Assay, 33 uM: ligand treated / DMSO treated cells; for Fold Induction, Z3 Assay, 33 uM: 33 uM ligand
T1 sequence (P49881 86-606): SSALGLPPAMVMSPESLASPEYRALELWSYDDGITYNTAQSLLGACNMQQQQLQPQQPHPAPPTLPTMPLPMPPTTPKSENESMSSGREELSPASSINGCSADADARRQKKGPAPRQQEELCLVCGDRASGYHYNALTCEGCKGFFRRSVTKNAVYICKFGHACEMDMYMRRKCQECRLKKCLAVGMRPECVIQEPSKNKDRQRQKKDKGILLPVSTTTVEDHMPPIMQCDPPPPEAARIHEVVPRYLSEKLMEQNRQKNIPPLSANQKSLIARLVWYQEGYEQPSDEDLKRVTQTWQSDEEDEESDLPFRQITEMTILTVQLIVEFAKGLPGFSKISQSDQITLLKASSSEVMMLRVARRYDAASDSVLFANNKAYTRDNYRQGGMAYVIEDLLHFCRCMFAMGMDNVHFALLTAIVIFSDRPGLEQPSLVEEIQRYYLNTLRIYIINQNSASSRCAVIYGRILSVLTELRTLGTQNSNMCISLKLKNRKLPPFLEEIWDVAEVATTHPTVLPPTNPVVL
T1 sequence (P19793 1-462 partner): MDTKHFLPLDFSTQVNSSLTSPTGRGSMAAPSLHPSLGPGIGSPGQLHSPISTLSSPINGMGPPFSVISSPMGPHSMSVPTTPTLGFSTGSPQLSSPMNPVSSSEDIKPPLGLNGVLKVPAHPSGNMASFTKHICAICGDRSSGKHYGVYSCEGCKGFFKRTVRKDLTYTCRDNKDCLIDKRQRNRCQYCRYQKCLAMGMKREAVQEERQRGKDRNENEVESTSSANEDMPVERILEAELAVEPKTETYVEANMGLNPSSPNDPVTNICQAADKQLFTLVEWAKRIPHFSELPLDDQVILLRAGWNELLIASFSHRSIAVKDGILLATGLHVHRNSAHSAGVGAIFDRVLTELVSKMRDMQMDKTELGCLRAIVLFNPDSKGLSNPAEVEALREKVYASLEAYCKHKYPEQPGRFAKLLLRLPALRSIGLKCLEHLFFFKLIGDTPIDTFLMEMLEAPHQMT

[3] = read-out: Z3 assay EC50, HEK-293 Z3 cells, β-galactosidase reporter, average of two wells
[4] = read-out: 13B3 EC50, CHO 13B3 stable cell line, luciferase reporter, 48 h, average of two wells

Compound | EC50 [1] [nM] | 13B3 assay Rel Max FI [1] | fold induction at 3.3 µM [1] | fold induction at 33 µM [1] | EC50 [2] [nM] | fold induction at 3.3 µM [2] | fold induction at 33 µM [2] | Z3 assay Rel Max FI ([2]; HEK-293 Z3 cells) | Fold Induction, 13B3 Assay, 33 uM ([1]; average of two wells) | Fold Induction, Z3 Assay, 3.3 uM ([2]; average of two wells) | Fold Induction, Z3 Assay, 33 uM ([2]; average of two wells) | EC50 [2, 3] [nM] | Fold Induction, 13B3 Assay, 3.3 uM ([1]; average of two wells) | EC50 [1, 4] [nM]
CCc1c(OC)cccc1C(=O)NN(C(=O)c1cc(C)cc(/C=N/NC(N)=O)c1)C(C)(C)C [RG-115429, semicarbazide of N-(3-formyl-5-methyl-benzoyl)-N-tert-butyl-N′-(2-ethyl-3-methoxy-benzoyl) hydrazide] | 8680 | 1.065 | 18 | 1840 | 9570 | 3 | 1720 | 0.880 | – | – | – | – | – | –
COc1cccc(C(=O)NN(C(=O)c2cc(C)cc(C)c2)C(C)(C)C)c1CCl [RG-115490, 3,5-dimethyl-benzoic acid N-tert-butyl-N′-(2-chloromethyl-3-methoxy-benzoyl)-hydrazide] | > 50000 | 1.01 | 2 | 844 | 6350 | 123 | 814 | 0.44 | – | – | – | – | – | –
COc1cccc(C(=O)NN(C(=O)c2cc(C)cc(C)c2)C(C)(C)C)c1CN(C)C [RG-115497, 3,5-dimethyl-benzoic acid N-tert-butyl-N′-(2-dimethylaminomethyl-3-methoxy-benzoyl)-hydrazide] | > 50000 | 0 | 1 | – | > 50000 | 1 | 20 | 0.07 | – | – | – | – | – | –
CCc1c(OC)cccc1C(=O)NN(C(=O)c1cccc(F)c1)C(C)(C)C [RG-115515] | – | – | – | – | – | – | – | 0.975 | 1996 | 1306 | 420 | 617 | – | –
Cc1cc(C)cc(C(=O)N(NC(=O)c2ccc3c(c2Cl)COCO3)C(C)(C)C)c1 [RG-115532] | – | 0.835 | – | – | – | – | – | 0.933 | 738 | 530 | – | 129 | 908 | 518
C=Cc1c(OC)cccc1C(=O)NN(C(=O)c1cc(F)c(Cl)cc1Cl)C(C)(C)C [RG-115534] | – | – | – | – | – | – | – | 0.463 | 211 | 168 | 249 | 2750 | – | –
Cc1c(C(=O)NN(C(=O)c2cc(Cl)nc(Cl)c2)C(C)(C)C)ccc2c1OCCO2 [RG-115536] | – | 0.734 | – | – | – | – | – | 0.950 | – | 488 | – | 126 | 483 | 781
CCc1c(OC)cccc1C(=O)NN(C(=O)c1cnccn1)C(C)(C)C [RG-115550, pyrazine-2-carboxylic acid N-tert-butyl-N′-(2-ethyl-3-methoxy-benzoyl)-hydrazide] | – | – | 1 | – | – | – | 21 | – | – | – | – | – | – | –
COc1cc(C(=O)N(NC(=O)c2ccc3c(c2C)OCCO3)C(C)(C)C)c([N+](=O)[O-])c(OC)c1C [RG-115609, 3,5-dimethoxy-4-methyl-2-nitrobenzoic acid N-t-butyl-N′-(5-methy-1benzo-1,4-dioxan-6-carbonyl)-hydrazide] | – | 0.883 | – | – | – | – | – | 0.625 | 4217 | 90 | 383 | 1390 | 558 | 13800
CCc1c(OC)cccc1C(=O)NN(C(=O)c1cc(C)cc(C=NO)c1)C(C)(C)C [RG-115625] | – | 0.931 | – | – | – | – | – | 0.950 | 715 | 265 | 1559 | 389 | 3 | 25300
CCc1c(OC)cccc1C(=O)NN(C(=O)c1cccc(F)c1F)C(C)(C)C [RG-115627] | – | 0.854 | – | – | – | – | – | 0.840 | 10058 | 378 | 362 | 813 | 1291 | 921
CCc1c(OC)cccc1C(=O)NN(C(=O)c1cccc(Br)c1)C(C)(C)C#N [RG-115648] | – | – | – | – | – | – | – | 0.182 | – | – | – | 21400 | 9 | –
CCc1ccc(C(=O)NN(C(=O)c2cccc(C)c2)C(C)(C)C)c(F)c1 [RG-115674] | – | 0.875 | – | – | – | – | – | 0.995 | – | 319 | – | 229 | 442 | 1720
CCc1c(C(=O)NN(C(=O)c2cc(F)c(Cl)cc2Cl)C(C)(C)C)ccc2c1OCCO2 [RG-115684] | – | – | – | – | – | – | – | – | 151 | – | 498 | – | – | –
CCc1c(OC)cccc1C(=O)NN(C(=O)c1cc(OC)c(C)c(OC)c1)C(C)(C)C#N [RG-115690] | – | 1.181 | – | – | – | – | – | 0.998 | – | 571 | – | 209 | 930 | 632
CCc1c(OC)cccc1C(=O)NN(C(=O)c1nc(SC)cnc1Cl)C(C)(C)C [RG-115716] | – | – | – | – | – | – | – | – | – | – | 66 | – | 3 | –
CCc1c(OC)cccc1C(=O)NN(C(=O)c1ccc2nc[nH]c2c1)C(C)(C)C [RG-115719, 3H-benzoimidazole-5-carboxylic acid N-tert-butyl-N′-(2-ethyl-3-methoxy-benzoyl)-hydrazide] | – | – | – | 1 | – | – | 271 | – | – | – | – | – | – | –
